From patent US4500544A, “Ascochlorin derivatives, and pharmaceutical composition containing the same” (Chugai Seiyaku Kabushiki Kaisha, priority 1981, dated 1985)

Experiments:
Type in all cases: in vivo, ddY male mice
Ehrlich ascites tumor = assay: life span of mice with Ehrlich ascites tumor (Example 22); settings: 2 mg i.p. once a day for 7 days; for Days survived: n=8, control 15.5 ± 2.12; for T/0 (%): control 100
Description: 10^6 Cells of Ehrlich ascites tumor were transplanted in five-week-old ddY male mice and from the 24th hour onward, they were injected intraperitoneally the compounds indicated in Table 4 of the present invention once a day for 7 consecutive days. Each injection contained 2 mg of the test compounds. The efficacy of the compounds is indicated in Table 4 in terms of their life span.

[1] = plasma glucose and cholesterol in normal mice fed the compounds (Example 19); settings: 0.1% in diet, one week, n=10; for total cholesterol in plasma: control 135.9 ± 4.8; for plasma glucose: control 271.6 ± 0.4
Description: Five-week-old ddY male mice (n=10) were given for one week a diet (CE-2 from Nippon Crea Co., Ltd.) containing 0.1% of the sample compounds of the present invention indicated in Table 1. Blood was then withdrawn from the heart and the glucose and cholesterol levels in plasma were measured.

[2] = system: streptozotocin diabetic ddY mice; assay: streptozotocin-diabetic mice, diet with 0.1% compound (Example 21)
Description: Five-week-old ddY male mice were injected intraperitoneally with 130 mg/kg of streptozotocin. […] Each group was allowed to take the diet and drink water freely. One week later, the levels of glucose, insulin, free fatty acid in serum and glycogen in liver were measured.

[3] = serum lipid and glucose in normal mice fed the compounds (Example 25); settings: for free fatty acid in serum / neutral fat in serum / total cholesterol in serum / serum glucose / lipid level in serum (in words): 0.05% in diet, one week; for free fatty acid in serum / neutral fat in serum / total cholesterol in serum / serum glucose: n=8; for free fatty acid in serum: control 25.3 ± 1.62; for neutral fat in serum: control 134.7 ± 8.6; for total cholesterol in serum: control 135.9 ± 4.8; for serum glucose: control 293.0 ± 13.3; for free fatty acid in serum, change / neutral fat in serum, change / serum glucose, change / total cholesterol in serum, change: vs control
Description: Five-week-old ddY male mice were given for one week a diet (CE-2 from Nippon Crea Co., Ltd.) containing 0.05% of the compounds of the present invention indicated in Table 7. On the 7th day, the mice were sacrificed and the levels of lipid and glucose in their serum were measured.

SMILES | Days survived (Ehrlich ascites tumor) [days] | T/0 (%) (Ehrlich ascites tumor) | total cholesterol in plasma [1] [mg/dL] | plasma glucose [1] [mg/dL] | free fatty acid in serum [3] [mg/dL] | neutral fat in serum [3] [mg/dL] | total cholesterol in serum [3] [mg/dL] | serum glucose [3] [mg/dL] | free fatty acid in serum, change [3] | neutral fat in serum, change [3] | serum glucose, change [3] [%] | total cholesterol in serum, change [3] | also measured
CCOC(=O)COc1c(Cl)c(C)c(C=O)c(O)c1C/C=C(C)/C=C/C1(C)C(C)CCC(=O)C1C (centres unmarked) [Example 1, 4-O-ethoxycarbonylmethylated ascochlorin] | 19.3 ± 5.77 | 125 | 105.7 ± 3.0 | 208.3 ± 13.1 |  |  |  |  |  |  |  |  | serum immunoreactive insulin ([2]; 0.1% in diet, one week, n=10, control 42.67 ± 4.61): 26.60 ± 2.78 μU/ml; serum free fatty acid ([2]; 0.1% in diet, one week, n=10, control 44.29 ± 2.05): 30.44 ± 1.22 mg/dL; serum glucose ([2]; 0.1% in diet, one week, n=10, control 337.7 ± 23.0): 250.6 ± 26.2 mg/dL; body weight after feeding ([2]; 0.1% in diet, one week, before feeding 25.5 ± 0.4, control after feeding 28.0 ± 0.5, ns): 27.0 ± 0.6 g/mouse; serum free fatty acid, change ([2]; vs control): -31.3%; serum glucose, change ([2]; vs control): -25.8%; serum immunoreactive insulin, change ([2]; vs control): -37.7%
CCOC(=O)C(C)Oc1c(Cl)c(C)c(C=O)c(O)c1C/C=C(C)/C=C/C1(C)C(C)CCC(=O)C1C (centres unmarked) [Example 5, 4-O-(1-ethoxycarbonylethyl) ester of ascochlorin] | > 19.1 ± 1.97 | 123 | 109.7 ± 5.0 | 205.7 ± 8.2 |  |  |  |  |  |  |  |  | 
CCOC(=O)CCCOc1c(Cl)c(C)c(C=O)c(O)c1C/C=C(C)/C=C/C1(C)C(C)CCC(=O)C1C (centres unmarked) [Example 8, 4-O-(3-ethoxycarbonyl)propyl ester of ascochlorin] |  |  | 115.0 ± 6.6 | 255.5 ± 17.0 |  |  |  |  |  |  |  |  | 
CC(/C=C/C1(C)C(C)CCC(=O)C1C)=C\Cc1c(O)c(C=O)c(C)c(Cl)c1OC(C)C(=O)O (centres unmarked) [Example 9] | > 28.8 ± 3.54 | 186 | 106.7 ± 5.5 | 210.0 ± 10.7 |  |  |  |  |  |  |  |  | 
CC(/C=C/C1(C)C(C)CCC(=O)C1C)=C\Cc1c(O)c(C=O)c(C)c(Cl)c1OCCCC(=O)O (centres unmarked) [Example 10] | 19.3 ± 10.12 | 125 | 115.7 ± 5.0 | 220.1 ± 6.8 |  |  |  |  |  |  |  |  | 
CCN(CC)C(=O)Oc1c(Cl)c(C)c(C=O)c(O)c1C/C=C(C)/C=C/C1(C)C(C)CCC(=O)C1C (centres unmarked) [Example 13, 4-O--diethylcarbamoyl ascochlorin] |  |  |  |  | 26.4 ± 0.58 | 110.2 ± 16.4 | 121.2 ± 5.0 | 215.2 ± 5.7 | +4.3% | -18.2% | -26.6 | -10.8% | 
CC(/C=C/C1(C)C(C)CCC(=O)C1C)=C\Cc1c(O)c(C=O)c(C)c(Cl)c1OC(=O)COc1ccc(Cl)cc1 (centres unmarked) [Example 14, 4-O-(p-chlorophenoxy)acetyl ascochlorin] |  |  |  |  | 24.9 ± 0.48 | 99.4 ± 9.4 | 115.6 ± 9.8 | 209 ± 8.9 | -1.6% | -26.2% | -28.7 | -14.8% | lipid level in serum (in words) [3]: could also reduce the lipid level in serum
COc1ccc(C(=O)Oc2c(Cl)c(C)c(C=O)c(O)c2C/C=C(C)/C=C/C2(C)C(C)CCC(=O)C2C)cc1 (centres unmarked) [Example 15, 4-O--(p-methoxybenzoyl) ascochlorin] |  |  |  |  | 25.2 ± 1.89 | 141.4 ± 21.3 | 137.9 ± 4.1 | 199.3 ± 8.6 | -0.4% | +4.9% | -31.9 | +1.4% | 
COC(=O)c1ccc(C(=O)Oc2c(Cl)c(C)c(C=O)c(O)c2C/C=C(C)/C=C/C2(C)C(C)CCC(=O)C2C)cc1 (centres unmarked) [Example 16, 4-O--(p-methoxycarbonyl)-benzoyl ascochlorin] |  |  |  |  | 21.8 ± 0.69 | 136.3 ± 8.1 | 129.6 ± 3.9 | 229.9 ± 17.0 | -15.9% | +1.2% | -21.5 | -4.6% | 
CC(/C=C/C1(C)C(C)CCC(=O)C1C)=C\Cc1c(O)c(C=O)c(C)c(Cl)c1OC(=O)c1ccncc1 (centres unmarked) [Example 17, 4-O-isonicotinoyl ascochlorin] |  |  |  |  | 20.3 ± 0.77 | 116.1 ± 13.8 | 113.5 ± 7.8 | 191.6 ± 13.2 | -19.8% |  | -34.6 | -16.5% | lipid level in serum (in words) [3]: could also reduce the lipid level in serum
CC(/C=C/C1(C)C(C)CCC(=O)C1C)=C\Cc1c(O)c(C=O)c(C)c(Cl)c1OC(=O)c1ccccn1 (centres unmarked) [Example 18, 4-O--picolinyl ascochlorin] |  |  |  |  | 23.5 ± 3.13 | 117.6 ± 6.8 | 138.4 ± 3.1 | 247.7 ± 9.0 | -7.1% | -12.7% | -15.5 | +1.8% | 
